Data published in patent US12194013B2 (SICHUAN JIUZHANG BIOLOGICAL SCIENCE AND TECHNOLOGY CO., LTD., priority 2018, dated 2025).
Marks after values point to notes of the source that are not given here.

Legend:
[1] = test system: human skin squamous cell carcinoma A431 cells; assay: Detecting apoptosis by flow cytometry (Annexin V-FITC/PI); type: cell-based; details: 72 h
Method: (§1) A431 cell lines were seeded in IMDM medium, containing 10% fetal bovine serum, 100 U·ml^−1 penicillin, and 100 μg·ml^−1 streptomycin, and then cultured in 37° C., 5% CO2 incubator. Cells were passaged one generation at 48-72 h, and the cells in the logarithmic growth phase were collected for the experiment.
The cells of each group treated with different concentrations of test substance for 72 h were collected and made into single cell suspension. The living cells were labeled with Annexin V-FITC and PI. After mixing, the cells were incubated in dark for 15 min at room temperature, and then 1× binding buffer was added and mixed, before the apoptotic cells were detected by flow cytometry and analyzed by Multicyc AV software.

[2] = test system: human skin squamous cell carcinoma A431 cells; assay: Inhibition of cell proliferation (MTT method); type: cell-based; details: 72 h
Method: as §1
The cells in logarithmic growth phase were inoculated on 96 well plate and further cultured for 24 hours, then divided into experimental groups and blank control group. […] The blank control group was added with the same volume of IMDM culture medium without test substance. Six multiple wells were set for each concentration. After 72 hours, the newly prepared MTT solution was added. After further culturing for 4 h, DMSO solution was added and shook, so that the crystals were fully dissolved. The absorbance value (A570 nm) of each well was measured on the microplate reader.

[3] = test system: head and neck squamous cell carcinoma SCCVII cell lines; assay: Transplanted tumor of head and neck squamous cell carcinoma SCCVII cell lines in mice; type: in vivo, mouse; details: 30 mg·kg^−1 intraperitoneally once a day; for Tumor volume / Tumor weight / Tumor inhibition rate: C3H/HeJ mice, SCCVII; for Tumor weight: at end of experiment; for Tumor inhibition rate: from average tumor weight vs negative group
Method: When the cells grew vigorously, they were digested with 0.25% trypsin, washed with phosphate buffer, and prepared as cell suspension at 3×10^6 cells/ml for use.
0.1 ml cell suspension was subcutaneously injected into the armpit of the left forelimb of mice. They were randomly divided into groups, 10 mice for one group, including test drug group 1, test drug group 2, test drug group 3, test drug group 4, test drug group 5, test drug group 6, test drug group 7, and negative group (N.S.), respectively. The drug was given on the second day after inoculation. The test drug group was intraperitoneally injected at a dose of 30 mg·kg^−1, once a day, and the administration volume was 1.0 ml; in the negative group, the same volume of normal saline was intraperitoneally injected, once a day.
The tumor volume (v=0.52×the long diameter of transplanted tumor L×the shortest diameter of transplanted tumor W^2) was measured on the 5th day after inoculation, and the mice were weighed every three days. When the tumor volume of the negative group was about 1.0 cm^3, the experiment was stopped, and the mice were killed by cervical dislocation and weighed.

Structure (SMILES)	Apoptosis rate of each experimental group ([1]; 1 μg/ml) [%]	Apoptosis rate of each experimental group ([1]; 2 μg/ml) [%]	Apoptosis rate of each experimental group ([1]; 4 μg/ml) [%]	Apoptosis rate of each experimental group ([1]; 8 μg/ml) [%]	Apoptosis rate of each experimental group ([1]; 16 μg/ml) [%]	Apoptosis rate of each experimental group ([1]; 32 μg/ml) [%]	Apoptosis rate of each experimental group ([1]; 64 μg/ml) [%]	Apoptosis rate of each experimental group ([1]; 128 μg/ml) [%]	inhibitory effect on the tumors in mice transplanted with SCCVII cell lines, compared with the negative group (in words) [3]	Tumor volume ([3]; 5 d after inoculation) [cm^3]	Tumor volume ([3]; 8 d after inoculation) [cm^3]	Tumor volume ([3]; 10 d after inoculation) [cm^3]	Tumor volume ([3]; 13 d after inoculation)	Tumor volume ([3]; 15 d after inoculation)	Tumor volume ([3]; 18 d after inoculation)	Tumor weight [3]	Tumor inhibition rate [3] [%]	other results
O=C(/C=C/c1ccc(O)c(O)c1)O[C@@H]1C[C@](O)(C(=O)O)C[C@@H](O)[C@H]1O [Chlorogenic acid]	0.57 ± 0.04	0.57 ± 0.05	0.61 ± 0.06	0.71 ± 0.11	1.99 ± 0.57	4.56 ± 1.08	4.73 ± 1.22	4.87 ± 0.74	significant differences	0.124 ± 0.083	0.222 ± 0.079	0.347 ± 0.102	0.436 ± 0.172* cm^3	0.483 ± 0.136* cm^3	0.545 ± 0.224* cm^3	1.43 ± 0.074 g	41.15	inhibition at 1 µg/mL ([2]; Homo sapiens, A-431, A431 cells, 1 μg/ml, read-out: The inhibition rate of each experimental group): 1.12 ± 0.47%; inhibition at 2 µg/mL ([2]; Homo sapiens, A-431, A431 cells, 2 μg/ml, read-out: The inhibition rate of each experimental group): 1.38 ± 0.53%; inhibition at 4 µg/mL ([2]; Homo sapiens, A-431, A431 cells, 4 μg/ml, read-out: The inhibition rate of each experimental group): 5.63 ± 2.29%; inhibition at 8 µg/mL ([2]; Homo sapiens, A-431, A431 cells, 8 μg/ml, read-out: The inhibition rate of each experimental group): 11 ± 4.71%; inhibition at 16 µg/mL ([2]; Homo sapiens, A-431, A431 cells, 16 μg/ml, read-out: The inhibition rate of each experimental group): 18.6 ± 4.82%; inhibition at 32 µg/mL ([2]; Homo sapiens, A-431, A431 cells, 32 μg/ml, read-out: The inhibition rate of each experimental group): 24.5 ± 9.69%; inhibition at 64 µg/mL ([2]; Homo sapiens, A-431, A431 cells, 64 μg/ml, read-out: The inhibition rate of each experimental group): 31.4 ± 7.35%; inhibition at 128 µg/mL ([2]; Homo sapiens, A-431, A431 cells, 128 μg/ml, read-out: The inhibition rate of each experimental group): 36.3 ± 10.8%
O=C(/C=C/c1ccc(O)cc1)O[C@@H]1C[C@](O)(C(=O)O)C[C@@H](O)[C@H]1O [Coumaroylquinic acid]	0.53 ± 0.03	0.55 ± 0.05	0.56 ± 0.04	0.64 ± 0.13	0.69 ± 0.41	1.37 ± 0.36	2.26 ± 0.69	3.07 ± 1.23	not obvious	0.124 ± 0.047	0.258 ± 0.121	0.369 ± 0.114	0.604 ± 0.225* cm^3	0.653 ± 0.111* cm^3	0.811 ± 0.108* cm^3	2.11 ± 0.129^ g	13.17	inhibitory effect on human skin squamous cell carcinoma A431 (in words) ([2]; 1-128 μg/ml): not obvious; The inhibition rate of each experimental group ([2]; A431 cells, 1 μg/ml): 1.24 ± 0.81%; The inhibition rate of each experimental group ([2]; A431 cells, 2 μg/ml): 1.28 ± 0.69%; The inhibition rate of each experimental group ([2]; A431 cells, 4 μg/ml): 1.33 ± 0.42%; The inhibition rate of each experimental group ([2]; A431 cells, 8 μg/ml): 2.41 ± 0.58%; The inhibition rate of each experimental group ([2]; A431 cells, 16 μg/ml): 2.62 ± 0.86%; The inhibition rate of each experimental group ([2]; A431 cells, 32 μg/ml): 5.77 ± 0.92%; The inhibition rate of each experimental group ([2]; A431 cells, 64 μg/ml): 6.83 ± 1.02%; The inhibition rate of each experimental group ([2]; A431 cells, 128 μg/ml): 8.11 ± 0.63%; Tumor volume ([3]; 22 d after inoculation): 0.954 ± 0.203* cm^3
